Experimental findings from patent US20090203693A1, “THERAPEUTIC AGENT FOR LIVER FIBROSIS” (Eisai R & D Management Co., Ltd., priority 2006, published 2009) are described below.

The assay addresses T1, His6-DDR2 (cytoplasmic domain of human DDR2) (Homo sapiens, UniProt Q16832).
T1 construct: cytoplasmic domain of DDR2 having 6 histidines fused to the N-terminus thereof; made in house; host or cells: Sf9 insect cells (baculovirus, pFastBac-HT)
T1 sequence (Q16832 422-855 limits assumed): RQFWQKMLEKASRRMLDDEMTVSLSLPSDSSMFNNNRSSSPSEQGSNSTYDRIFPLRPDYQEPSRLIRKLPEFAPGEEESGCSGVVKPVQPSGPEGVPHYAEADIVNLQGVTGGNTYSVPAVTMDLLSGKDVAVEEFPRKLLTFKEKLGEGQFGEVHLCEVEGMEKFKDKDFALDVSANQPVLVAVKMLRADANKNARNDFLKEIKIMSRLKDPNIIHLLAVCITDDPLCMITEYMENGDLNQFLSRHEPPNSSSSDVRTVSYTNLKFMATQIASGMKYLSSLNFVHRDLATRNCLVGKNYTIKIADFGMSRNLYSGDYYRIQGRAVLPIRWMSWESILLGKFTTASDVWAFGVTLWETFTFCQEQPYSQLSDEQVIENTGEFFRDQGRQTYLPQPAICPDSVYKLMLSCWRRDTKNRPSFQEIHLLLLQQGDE
Put plainly: Determination of DDR2 kinase inhibitory activity (His6-DDR2 tyrosine autophosphorylation, HTRF). As to conditions: cell free, ATP, room temperature 10 minutes, HTRF detection; read-out: IC50 (concentration of the test substance required for inhibiting His6-DDR2 kinase activity by 50%). The assay is classed as biochemical. An excerpt:
A DNA fragment of cytoplasmic domain of human DDR2 (SEQ ID NO: 1) was isolated by PCR method (Expand High Fidelity (purchased from Roche)) according to a conventional technique using human brain cDNA library (purchased from Clontech) as a template and SEQ ID NO:3: 5′-[…]-3′ and SEQ ID NO:4: 5′-[…]-3′ (purchased from JBioS) as primers. This DNA fragment was inserted into a baculovirus transplacement vector (pFastBac™-HT (purchased from Invitrogen)) to obtain a recombinant construct. Insect cells (Spodoptera frugiperda 9 (Sf9 cells)) were transfected with this recombinant construct, thereby preparing a DDR2 recombinant baculovirus solution. For preparation of a recombinant baculovirus, we referred to a standard textbook (Bac-to-Bac Baculovirus Expression System (Invitrogen)).
The above-described DDR2 recombinant Baculovirus solution (0.07 mL) was added to Sf9 cells (7×10^7 cells) suspended in 2.5% FBS-containing SF-900II medium (purchased from Invitrogen) and shake-cultured at 27° C. for 72 hours. Then, this DDR2 recombinant Baculovirus-infected cells were subjected to centrifugation at 1,600 rpm at 4° C. for 6 minutes and the supernatant was removed. The precipitated infected cells were suspended in 10 mL of ice-cold PBS and centrifuged at 1,600 rpm at 4° C. for 6 minutes to remove the supernatant. The precipitated infected cells were suspended in 5 mL of ice-cold lysis buffer (50 mM Tris-HCl (pH 8.5), 5 mM 2-mercaptoethanol, 100 mM KCl, 1 mM PMSA, 1% (v/v) NP40), and centrifuged at 10,000 rpm at 4° C. for 10 minutes to obtain the supernatant.
This supernatant was added to a Ni-NTA agarose column (1.5 mL (purchased from Qiagen)) equilibrated with 5 mL of buffer A (20 mM Tris-HCl (pH 8.5), 5 mM 2-mercaptoethanol, 500 mM KCl, 20 mM imidazole, 10% (v/v) glycerol). This column was sequentially washed with 10 mL of buffer A, 2 mL of buffer B (20 mM Tris-HCl (pH8.5), 5 mM 2-mercaptoethanol, 1 M KCl, 10% (v/v) glycerol) and 2 mL of buffer A. Subsequently, 4 mL of buffer C (20 mM Tris-HCl (pH 8.5), 5 mM 2-mercaptoethanol, 100 mM KCl, 100 mM imidazole, 10% (v/v) glycerol) was added to obtain an eluate. This eluate was placed in a dialysis membrane (purchased from Spectrum Medical Industries) and dialyzed against 1 L of dialysis buffer (20 mM Tris-HCl, 10% (v/v) glycerol, 1 mM dithiothreitol, 0.1 mM Na3VO4, 0.1 mM EGTA) at 4° C. overnight. After dialysis, a portion of the eluate was subjected to SDS-PAGE and an amount of the recombinant protein detected at a molecular weight of about 40 kDa (His6-DDR2 (cytoplasmic domain of DDR2 having 6 histidines fused to the N-terminus thereof)) by Coomassie brilliant blue staining was quantitated using BSA as a standard substance.
To each well of a 96-well black half plate (purchased from Corning, Product No: 3694), 20 ng of His6-DDR2, 35 μL of 25 mM Hepes solution (pH 7.4) containing 14 mM MgCl2 and a test substance dissolved in dimethylsulfoxide (at 100-fold dilution with 1% BSA; 5 μL) were added to a total amount of 40 μL. To this, […] of 50 μM ATP (purchased with Sigma) diluted with 25 mM Hepes solution was added and incubated at room temperature for 10 minutes. Thereafter, 10 μL of 50 mM EDTA (pH 8.0) (purchased from Wako Pure Chemical Industries) was added to terminate the kinase reaction.
Tyrosine-phosphorylated DDR2 was detected using homogeneous time resolved fluorescence (HTRF) technique (Analytical Biochemistry, 269, 94-104, 1999). Specifically, to each well of the reaction solutions mentioned above, 20 μL of 25 mM Hepes solution containing 1 M KF, 4.75 ng of europium cryptate-labeled anti-phosphorylated tyrosine antibody (Eu(K)-PT66) and 100 ng of XL665-labeled anti-His antibody (XL665-Anti-His) was added. This reaction solution was incubated at room temperature overnight. Thereafter, fluorescence intensities of each well at 665 nm and 620 nm were measured under irradiation at an excitation wavelength of 337 nm using Discovery HTRF microplate analyzer (from Packard). […]

Consider `CCNC(=O)Nc1ccc(Oc2ccnc3cc(OC)c(C(=O)NC)cc23)cc1Cl` [Compound 19, N6-methyl-4-(3-chloro-4-(((ethylamino)carbonyl)amino)phenoxy)-7-methoxy-6-quinolinecarboxamide], for which the IC50 amounted to 178 nM. To `N#Cc1cc2c(Oc3ccc(Cl)c(NC(=O)NC4CC4)c3)ccnc2cc1OCCN1CCCC1` [Compound 15, N-(2-chloro-5-((6-cyano-7-(2-(1-pyrrolidino)ethoxy)-quinolyl)oxy)phenyl)-N′-cyclopropylurea] belongs 822 nM. To `CCNC(=O)Nc1ccc(Oc2ccnc3cc(OC[C@H](O)CN4CCCC4)c(C(=O)NC)cc23)cc1Cl` [Compound 22, N6-methyl-4-(3-chloro-4-(((ethylamino)carbonyl)amino)phenoxy)-7-((2R)-2-hydroxy-3-(1-pyrrolidino)propoxy)-6-quinolinecarboxamide] belongs 0.4 nM. `COCCNC(=O)c1cc2c(Oc3ccc(NC(=O)NC4CC4)c(Cl)c3)ccnc2cc1OC` [Compound 13, N6-(2-methoxyethyl)-4-(3-chloro-4-(((cyclopropylamino)carbonyl)amino)phenoxy)-7-methoxy-6-quinolinecarboxamide]: the IC50 was 18 nM. `COc1cc2nccc(Oc3ccc(NC(=O)Nc4cccc(SC)c4)cc3)c2cc1OC` [Compound 5, N-(3-methylthiophenyl)-N′-(4-((6,7-dimethoxy-4-quinolinyl)oxy)phenyl)urea]: the IC50 came to 1.2 nM. With `CCNC(=O)Nc1ccc(Oc2ccnc3cc(OC[C@H](O)CN(CC)CC)c(C(=O)NC)cc23)cc1Cl` [Compound 21], the IC50 was determined as 28 nM.

For `CNC(=O)c1cc2c(Oc3ccc(NC(=O)NC4CC4)c(Cl)c3)ccnc2cc1OCCOC` [Compound 18, N6-methyl-4-(3-chloro-4-(((cyclopropylamino)carbonyl)amino)phenoxy)-7-(2-methoxyethoxy)-6-quinolinecarboxamide], the IC50 is 0.4 nM. For the compound `CN1CCC(C(=O)Nc2cc(Oc3ccc4c(ccn4C(=O)Nc4ccccc4)c3)ccn2)CC1` [Compound 14, N1-phenyl-5-((2-(((1-methyl-4-piperidyl)carbonyl)amino)-4-pyridyl)oxy)-1H-1-indolecarboxamide], the IC50 was 0.24 nM. Then `COc1cc2nccc(Oc3ccc(NC(=O)Nc4cccc(C(N)=O)c4)cc3)c2cc1OC` [Compound 4, N-(3-carbamoylphenyl)-N′-(4-((6,7-dimethoxy-4-quinolinyl)oxy)phenyl)urea], with 1.3 nM; and `CCCCNC(=O)Nc1ccc(Oc2ccnc3cc(OC)c(OC)cc23)cc1` [Compound 2, N-n-butyl-N′-(4-((6,7-dimethoxy-4-quinolinyl)oxy)phenyl)urea], with 7.2 nM; and `COc1cc2nccc(Oc3ccc4c(ccn4C(=O)Nc4ccc(F)cc4)c3)c2cc1OC` [Compound 9, 6,7-dimethoxy-4-(5-(1-(4-fluorophenylcarbamoyl)-indolyl)oxy)quinoline], with 1.9 nM.

For `COc1cc2nccc(Oc3ccc4c(ccn4C(=O)NC4CC4)c3)c2cc1C(N)=O` [Compound 12, 6-carbamoyl-4-(1-cyclopropylcarbamoyl-1H-indole-5-yloxy)-7-methoxyquinoline], the IC50 was 0.15 nM. Then `COc1ccc(NC(=O)Nc2ccc(Oc3ccnc4cc(OC)c(OC)cc34)cc2)cc1` [Compound 1, N-(4-methoxyphenyl)-N′-(4-((6,7-dimethoxy-4-quinolinyl)oxy)phenyl)urea], with 0.06 nM; and `COCCOc1cc2nccc(Oc3ccc(NC(=O)Nc4cccc(S(C)(=O)=O)c4)c(F)c3)c2cc1C#N` [Compound 7, N-(4-(6-cyano-7-(2-methoxyethoxy)-4-quinolyl)oxy-2-fluorophenyl)-N′-(3-methylsulfonylphenyl)urea], with 0.63 nM; and `CCNC(=O)Nc1ccc(Oc2ccnc3cc(OCC4CCN(C)CC4)c(C(=O)NC)cc23)cc1Cl` [Compound 23, N6-methyl-4-(3-chloro-4-(((ethylamino)carbonyl)amino)phenoxy)-7-((1-methyl-4-piperidyl)methoxy)-6-quinolinecarboxamide], with 18 nM. As for `CNC(=O)Nc1cc(Oc2ccnc3cc(OC)c(C(=O)NC)cc23)ccc1Cl` [Compound 16, N6-methyl-4-(4-chloro-3-(((methylamino)carbonyl)amino)phenoxy)-7-methoxy-6-quinolinecarboxamide], the IC50 was determined as 1890 nM. Take `CCNC(=O)Nc1ccc(Oc2ccnc3cc(OC)c(C(=O)NCC)cc23)cc1Cl` [Compound 20, N6-ethyl-4-(3-chloro-4-(((ethylamino)carbonyl)amino)phenoxy)-7-methoxy-6-quinolinecarboxamide]: the IC50 came out at 428 nM. As to `COc1cc2nccc(Oc3ccc(NC(=O)Nc4ccc(F)cc4)c(F)c3)c2cc1C(N)=O` [Compound 8, 4-(4-((4-fluoroanilino)carbonyl)amino-3-fluorophenoxy)-7-methoxy-6-quinoline carboxamide], the IC50 was 1.2 nM.

For the compound `COc1cc2nccc(Oc3ccc(NC(=O)NCCCSC)c(F)c3)c2cc1C(N)=O` [Compound 10, 4-(3-fluoro-4-((3-methylthiopropylamino)carbonyl)aminophenoxy)-7-methoxy-6-quinolinecarboxamide], the IC50 was 1.5 nM. Turning to `COc1cc2nccc(Oc3ccc(NC(=O)Nc4cccc(S(C)(=O)=O)c4)cc3)c2cc1OC` [Compound 6, N-(3-methylsulfonylphenyl)-N′-(4-((6,7-dimethoxy-4-quinolinyl)oxy)phenyl)urea], the IC50 was determined as 1.1 nM.

As for `N#Cc1cc2c(Oc3ccc(Cl)c(NC(=O)NC4CC4)c3)ccnc2cc1OC[C@H](O)CN1CCCC1` [Compound 17], the IC50 stood at 20.8 nM. Turning to `COc1cc2nccc(Oc3ccc(NC(=O)NC4CC4)c(Cl)c3)c2cc1C(N)=O` [Compound 11, 4-(3-chloro-4-(cyclopropylaminocarbonyl)aminophenoxy)-7-methoxy-6-quinolinecarboxamide], the IC50 is 0.91 nM.
